Where two headings read alike, the source gives them in different places.
Assays:
Aβ1-42 = assay: Measurement of Aβ1-42 in culture medium of 7W WT APP751 CHO cells by ELISA; format: cell-based, Chinese hamster; conditions: for Aβ1-42 (% of control): CHO cells that overexpress APP751, zero = below the detection limit of the assay; for activity at 5 µM: Cricetulus griseus, 5 μM test compound, CHO cells stably transfected with human APP751, culture medium, ELISA, control DMSO;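 as to Aβ1-42 (% of control): 5 µM test compound but RI-coded compounds at 10 µM for 24 hours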
Aβ1-40 = assay: Measurement of Aβ1-40 in culture medium of 7W WT APP751 CHO cells by ELISA; format: cell-based, Chinese hamster; conditions: for Aβ1-40 (% of control): CHO cells that overexpress APP751, zero = below the detection limit of the assay; for activity at 5 µM: Cricetulus griseus, 5 μM test compound, CHO cells stably transfected with human APP751, culture medium, ELISA, control DMSO;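 as to all read-outs here: 5 µM test compound but RI-coded compounds at 10 µM for 24 hours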
[1] = Table 1, 0 = no detectable amount, read-out: Aβ1-42 (% of control)
[2] = Table 1, 0 = no detectable amount

SMILES | Aβ1-42 (% of control) (Aβ1-42) | Aβ1-40 (% of control) (Aβ1-40) | activity at 5 µM (Aβ1-42; [1]) [%] | activity at 5 µM (Aβ1-40; [2]) [%] | also measured
CC(C)Oc1ccc(/C=c2\sc3n(c2=O)C(N)=C(C#N)C(c2ccc(OC(C)C)cc2)C=3C#N)cc1 (stereo not shown) [ST025026, 5-amino-7-[4-(methylethoxy)phenyl]-2-{[4-(methylethoxy)phenyl]methylene}-3-oxo-4,7-dihydro-1,3-thiazolidino[3,2-a]pyridine-6,8-dicarbonitrile] | 0 % of control | 26.82 % of control | – | – | –
O=C(N=C1CC(c2ccccc2)N(c2ccncc2)CC1[N+](=O)[O-])Nc1cccnc1 (stereo not shown) [ST026819, 2-(5-nitro-2-phenyl-1-(4-pyridyl)(4-6-hydropyridylidene))-N-(3-pyridyl)-2-azaace tamide] | – | – | – | – | activity at 5 µM (Aβ1-42; Table 3, read-out: Aβ-42 (% of control)): 57.8%; activity at 5 µM (Aβ1-40; Table 3): 64.9%
CCc1cccc(NC(=O)CSC2=C(C#N)C(c3ccc(C)s3)C(C(=O)Nc3ccccc3)=C(C)N2)c1 (stereo not shown) [RI_78] | 88.1 % of control | 77.32 % of control | – | – | –
COCCOC(=O)C1=C(C)NC2=C(C(=O)CC(C)(C)C2)C1c1ccc(C(C)C)cc1 (stereo not shown) [ST052313, 2-methoxyethyl 2,7,7-trimethyl-4-[4-(methylethyl)phenyl]-5-oxo-1,4,6,7,8-pentahydroquinoline-3-carboxylate] | – | – | 23.4 | 26.3 | –
CCOC(=O)C1=C(C)NC2=C(C(=O)CCC2)C1c1ccc(N(C)C)cc1 (stereo not shown) [ST013066, ethyl 4-[4-(dimethylamino)phenyl]-2-methyl-5-oxo-1,4,6,7,8-pentahydroquinoline-3-carboxylate] | – | – | 96.7 | 68.4 | –
CCOc1cc(C2C(C(=O)OC(C)C)=C(C)NC3=C2C(=O)CCC3)ccc1O (stereo not shown) [ST015043, methylethyl 4-(3-ethoxy-4-hydroxyphenyl)-2-methyl-5-oxo-1,4,6,7,8-pentahydroquinoline-3-carboxylate] | – | – | 68.8 | 95.9 | –
CC1=C(C(=O)OCCc2ccccc2)C(c2ccc([N+](=O)[O-])cc2)C2=C(CC(C)(C)CC2=O)N1 (stereo not shown) [ST014923, 2-phenylethyl 2,7,7-trimethyl-4-(4-nitrophenyl)-5-oxo-1,4,6,7,8-pentahydroquinoline-3-carboxylate] | – | – | 28.4 | 0 | –
CCOC(=O)C1=C(C)NC2=C(C(=O)CCC2)C1c1ccc(Cl)cc1Cl (stereo not shown) [ST024444, ethyl 4-(2,4-dichlorophenyl)-2-methyl-5-oxo-1,4,6,7,8-pentahydroquinoline-3-carboxylate] | – | – | 16.6 | 37.4 | –
CC1=C(C(=O)OC(C)(C)C)C(c2ccc(Cl)cc2)C(C#N)=C(SCC(=O)Nc2cc(C)ccc2C)N1 (stereo not shown) [ST050428, tert-butyl 6-{[N-(2,5-dimethylphenyl)carbamoyl]methylthio}-4-(4-chlorophenyl)-5-cyano-2-methyl-1,4-dihydropyridine-3-carboxylate] | 65.47 % of control | 95.74 % of control | – | – | –
CCOc1cc(C2C(C(=O)OCCc3ccccc3)=C(C)NC3=C2C(=O)CCC3)cc(Br)c1O (stereo not shown) [ST015061, 2-phenylethyl 4-(3-bromo-5-ethoxy-4-hydroxyphenyl)-2-methyl-5-oxo-1,4,6,7,8-pentahydroquinoline-3-carboxylate] | – | – | 33.5 | 40.8 | –
CC1=C(C(=O)Nc2ccccc2)C(c2cccs2)C(C#N)=C(SCC(=O)Nc2ccccc2F)N1 (stereo not shown) [RI_12] | 82.5 % of control | 68.4 % of control | – | – | –
CC1=C(C(=O)Nc2ccccc2)C(c2ccsc2)C(C#N)=C(SCC(=O)Nc2ccc(F)cc2)N1 (stereo not shown) [RI_77] | 25.4 % of control | 16.9 % of control | – | – | –
CCOC(=O)C1=C(N)n2c(s/c(=C\c3ccncc3)c2=O)=C(C#N)C1c1ccncc1 (stereo not shown) [ST024405, ethyl 5-amino-8-cyano-3-oxo-7-(4-pyridyl)-2-(4-pyridylmethylene)-4,7-dihydro-1,3-thiazolidino[3,2-a]pyridine-6-carboxylate] | 77.41 % of control | 59.66 % of control | – | – | –
CC1=C(C(=O)Nc2ccccc2)C(c2cccs2)C(C#N)=C(SCC(=O)N2CCCCCCCCCCC2)N1 (stereo not shown) [RI_32] | 62.8 % of control | 62.9 % of control | – | – | –
CC1=C(C(=O)Nc2ccccc2)C(c2cccs2)C(C#N)=C(SCC(=O)Nc2ccc(C)c(Cl)c2)N1 (stereo not shown) [ST050842, N-(3-chloro-4-methylphenyl)-2-[3-cyano-6-methyl-5-(N-phenylcarbamoyl)-4-(2-thienyl)(2-1,4-dihydropyridylthio)]acetamide] | 52.06 % of control | 37.46 % of control | – | – | –
CC1=C(C(=O)Nc2ccccc2)C(c2ccccc2)C(C#N)=C(SCC(=O)Nc2ccccc2C)N1 (stereo not shown) [RI_16] | 105 % of control | 64.2 % of control | – | – | –

SMILES | Aβ1-42 (% of control) (Aβ1-42) | Aβ1-40 (% of control) (Aβ1-40) | activity at 5 µM (Aβ1-42; [1]) [%] | activity at 5 µM (Aβ1-40; [2]) [%] | also measured
CCc1ccc(C2C(C(=O)OCc3ccccc3)=C(C)NC3=C2C(=O)CCC3)cc1 (stereo not shown) [ST015031, phenylmethyl 4-(4-ethylphenyl)-2-methyl-5-oxo-1,4,6,7,8-pentahydroquinoline-3-carboxylate] | – | – | 71.3 | 33.1 | –
CC1=C(C(=O)OCCc2ccccc2)C(c2ccc(Cl)cc2Cl)C2=C(CCCC2=O)N1 (stereo not shown) [ST014884, 2-phenylethyl 4-(2,4-dichlorophenyl)-2-methyl-5-oxo-1,4,6,7,8-pentahydroquinoline-3-carboxylate] | – | – | 52.8 | 62 | –
CC1=C(C(=O)Nc2ccc(Cl)cc2)C(c2ccsc2)C(C#N)=C(SCC(=O)Nc2cccc(C)c2)N1 (stereo not shown) [RI_14] | 64.1 % of control | 56.3 % of control | – | – | –
COc1ccc(NC(=O)CSC2=C(C#N)C(c3cccs3)C(C(=O)Nc3ccccc3)=C(C)N2)cc1 (stereo not shown) [RI_58] | 25.6 % of control | 23.1 % of control | – | – | –
N#CC1=C(N)n2c(s/c(=C\c3cc(Br)ccc3O)c2=O)=C(C#N)C1c1cc(Br)ccc1O (stereo not shown) [ST025030, 5-amino-7-(5-bromo-2-hydroxyphenyl)-2-[(5-bromo-2-hydroxyphenyl)methylene]-3-oxo-4,7-dihydro-1,3-thiazolidino[3,2-a]pyridine-6,8-dicarbonitrile] | 33.93 % of control | 39.29 % of control | – | – | –
COc1cccc(NC(=O)CSC2=C(C#N)C(c3ccsc3)C(C(=O)Nc3ccccc3)=C(C)N2)c1 (stereo not shown) [RI_51] | 58 % of control | 53.5 % of control | – | – | –
COC(=O)C1=C(C)NC2=C(C(=O)CC(C)(C)C2)C1c1ccc(OCc2cccc(Cl)c2)c(OC)c1 (stereo not shown) [ST028592, methyl 4-{4-[(3-chlorophenyl)methoxy]-3-methoxyphenyl}-2,7,7-trimethyl-5-oxo-1,4,6,7,8-pentahydroquinoline-3-carboxylate] | – | – | 97.1 | 28.3 | –
COC(=O)C1=C(C)NC2=C(C(=O)CC(c3cccs3)C2)C1c1cc(OC)c(Br)cc1OC (stereo not shown) [ST045143, methyl 4-(4-bromo-2,5-dimethoxyphenyl)-2-methyl-5-oxo-7-(2-thienyl)-1,4,6,7,8-pentahydroquinoline-3-carboxylate] | – | – | 16 | 22.9 | –
CCCOc1ccccc1C1C(C(=O)OCCOc2ccccc2)=C(C)NC2=C1C(=O)CC(C)(C)C2 (stereo not shown) [ST015105, 2-phenoxyethyl 2,7,7-trimethyl-5-oxo-4-(2-propoxyphenyl)-1,4,6,7,8-pentahydroquinoline-3-carboxylate] | – | – | 99.8 | 53 | –
CCc1cccc(NC(=O)CSC2=C(C#N)C(c3sccc3C)C(C(=O)Nc3ccccc3)=C(C)N2)c1 (stereo not shown) [RI_79] | 51.6 % of control | 55.46 % of control | – | – | –
CCCCOC(=O)C1=C(C)NC2=C(C(=O)CCC2)C1c1ccccc1OCCC (stereo not shown) [ST013325, butyl 2-methyl-5-oxo-4-(2-propoxyphenyl)-1,4,6,7,8-pentahydroquinoline-3-carboxylate] | – | – | 69.4 | 28.5 | –
COC(=O)C1=C(C)NC2=C(C(=O)CC(c3cccs3)C2)C1c1cc(OC)ccc1OC (stereo not shown) [ST052389, methyl 4-(2,5-dimethoxyphenyl)-2-methyl-5-oxo-7-(2-thienyl)-1,4,6,7,8-pentahydroquinoline-3-carboxylate] | – | – | 44.9 | 78.3 | –
CCOC(=O)C1=CN(c2cc(C)ccc2C)C=C(C(=O)OCC)C1c1ccc(OCC)c(OC)c1 [ST052471, ethyl 1-(2,5-dimethylphenyl)-5-(ethoxycarbonyl)-4-(4-ethoxy-3-methoxyphenyl)-1,4-dihydropyridine-3-carboxylate] | 57.75 % of control | 34.26 % of control | – | – | –
CCN(CC)c1ccc(C2C(C(=O)OCCOc3ccccc3)=C(C)NC3=C2C(=O)CC(C)(C)C3)cc1 (stereo not shown) [ST015075, 2-phenoxyethyl 4-[4-(diethylamino)phenyl]-2,7,7-trimethyl-5-oxo-1,4,6,7,8-pentahydroquinoline-3-carboxylate] | – | – | 42.2 | 51.7 | –
CCCOc1ccc(C2C(C(=O)OCCSCC)=C(C)NC3=C2C(=O)CC(C)(C)C3)cc1OC (stereo not shown) [ST017116, 2-ethylthioethyl 4-(3-methoxy-4-propoxyphenyl)-2,7,7-trimethyl-5-oxo-1,4,6,7,8-pentahydroquinoline-3-carboxylate] | – | – | 43 | 43.5 | –
COCCOC(=O)C1=C(C)NC2=C(C(=O)CC(c3ccc(OC)cc3)C2)C1c1ccc(Br)cc1 (stereo not shown) [ST017099, 2-methoxyethyl 4-(4-bromophenyl)-7-(4-methoxyphenyl)-2-methyl-5-oxo-1,4,6,7,8-pentahydroquinoline-3-carboxylate] | – | – | 57 | 84.5 | –
